Measured values as given in patent publication US7919470B2, “Glycopeptide composition with improved antibiotic activity” (Xellia Pharmaceuticals APS, priority 2003, dated 2011).
“And” between values parts separate entries of the source, which are not always exact repeats. Equal values may be shown once.

Columns and labels:
[1] = system: Staphylococcus aureus ATCC 6538; experiment: Microbiological potency by agar diffusion; assay type: cell-based; details: for Potency IU/mg powder: agar diffusion, Example 1 spiking experiments; for Potential potency IU/mg (TA2 + TA3-1): potency of the powder related to its HPLC content of TA2 + TA3-1
Procedure: Accordingly, in one embodiment a Teicoplanin composition as described herein, has a higher antibiotic activity than a corresponding Teicoplanin composition that has a % (mg TA3)/(mg TA3+TA2) of 6.5%, where the antibiotic activity is measured by a microbiological agar diffusion assay using Staphylococcus aureus ATCC 6538 as test strain and the measured potential potency (IU per mg TA2+TA3/g composition) is used to calculate the antibiotic activity.
(§1) Potency of Teicoplanin TA2, TA3-1 alone or in combination was determined by agar diffusion assays. Furthermore, the antimicrobial effect of pure and spiked products was investigated through the determination of the minimum inhibitory concentration (MIC) by a modified “MIC” test in micro titer trays.
The potency test is carried out according to the assay described below. The assay method generally corresponds to USP 25 and Ph.Eur 4th ed., but differs from both with respect to test strain and from the USP with respect to agar holes (ponds) as preferred to cylinders. The test is carried out as a 2,2 design as described in section <111> of the USP.
Stock solutions of standards and samples were prepared to approximately 900 IU/ml. The Teicoplanin standard contained approximately 25.0 mg in 4.0 ml water and buffer ad 25.0 ml. The samples of Teicoplanin compositions contained approximately 25.0 mg in 4.0 ml water and buffer ad 25.0 ml. The amount of sample was adjusted according to the actual amount of standard weighed. Finally, the standard and sample were diluted with buffer to the following concentrations:
The standard or sample was applied to the plates in accordance with an 8×8 Latin square design. Immediately after application, place the plates in the incubator at 34.0° C.±2° C., for 16-18 hours.
The results are analyzed by reading the zone diameters carefully with a 10× magnification and a precision of 0.1 mm. Statistical evaluation: for calculation and validation, follow the guidelines set out in Ph. Eur. and USP, using a computer program for all calculations.
In the spiking experiments, the amount of the investigated sample (amount of powder weighed) was reduced and replaced by a corresponding amount of spiking material or stock solutions were mixed in defined ratios.
(§2) Potency of teicoplanin TA2, TA3-1 alone or in combinations was determined by agar diffusion assays as described in example 1. Modified MIC-values in microtitre trays were determined as described in example 1.

S. aureus ATCC 6538 = experiment: Modified MIC test in micro titer trays; assay type: cell-based, Staphylococcus aureus; details: for MIC: 24 hours, 37° C.
Procedure: as §1
Pure TA3-1, (Teicoplanin Material B 96% TA2-X, 4% TA3-1) and mixtures thereof were used. The test strain used was S. aureus ATCC 6538 in final concentrations of 5×10^5/ml and 5×10^4/ml respectively. The test was carried out in micro titer trays as a modification of an ordinary MIC test. Instead of using two-fold dilutions, 0.40-1.20 μg/ml with 0.20 μl divisions and 1.0-4.0 μl/ml with 1.0 μl divisions was used. The trays were incubated at 37° C. The wells were examined after 24 hours and any visible growth was noted.
In order to strengthen the evidence some experiments were performed with a modified antimicrobial analysis of Teicoplanin, spiked with different amounts of TA3-1. It was carried out in liquid medium in contrast to the agar diffusion tests and determined the MIC values. The results are summarized in Table 4, (“MIC”-values of Teicoplanin and/or TA3-1 on S. aureus ATCC6538).
as §2

| MIC (S. aureus ATCC 6538; 5 × 10^4/ml S. aureus) [µg/mL] | MIC (S. aureus ATCC 6538; 5 × 10^5/ml S. aureus) [µg/mL] | MIC value of pure TA3-1 relative to Targocid alone (S. aureus ATCC 6538; Example 2, FIG. 6, MIC in μg powder/ml solution) | SMILES | Potency IU/mg powder [1] | Potential potency IU/mg (TA2 + TA3-1) [1] | Potency compared with Targocid ([1]; Example 2, agar diffusion) | Antimicrobial effect on S. aureus compared with Teicoplanin (S. aureus ATCC 6538; Example 1, MIC determination) | Antimicrobial effect on S. aureus relative to teicoplanin TA2 (S. aureus ATCC 6538; Example 2, MIC determination) |
| --- | --- | --- | --- | --- | --- | --- | --- | --- |
| – | – | – | CC(=O)N[C@H]1[C@H](O[C@@H]2c3ccc(c(Cl)c3)Oc3cc4cc(c3O[C@@H]3O[C@H](CO)[C@@H](O)[C@H](O)[C@H]3NC(=O)CCCCCCC(C)C)Oc3ccc(cc3Cl)C[C@H]3NC(=O)[C@H](N)c5ccc(O)c(c5)Oc5cc(O)cc(c5)[C@H](NC3=O)C(=O)N[C@H]4C(=O)N[C@H]3C(=O)N[C@@H]2C(=O)N[C@H](C(=O)O)c2cc(O)cc(O[C@H]4O[C@H](CO)[C@@H](O)[C@H](O)[C@@H]4O)c2-c2cc3ccc2O)O[C@H](CO)[C@@H](O)[C@@H]1O [TA2-2, Teicoplanin A2-2] | 807 IU/mg powder and 776 IU/mg powder | 1017 IU/mg (TA2 + TA3-1) and 994 IU/mg (TA2 + TA3-1) | – | – | – |
| 2 to 3 | 2 to 3 | 4-5 times higher | CC(=O)N[C@H]1[C@H](O[C@@H]2c3ccc(c(Cl)c3)Oc3cc4cc(c3O)Oc3ccc(cc3Cl)C[C@H]3NC(=O)[C@H](N)c5ccc(O)c(c5)Oc5cc(O)cc(c5)[C@H](NC3=O)C(=O)N[C@H]4C(=O)N[C@H]3C(=O)N[C@@H]2C(=O)N[C@H](C(=O)O)c2cc(O)cc(O[C@H]4O[C@H](CO)[C@@H](O)[C@H](O)[C@@H]4O)c2-c2cc3ccc2O)O[C@H](CO)[C@@H](O)[C@@H]1O [TA3-1, Teicoplanin A3-1] | 570 IU/mg powder | 687 IU/mg (TA2 + TA3-1) | much lower potency | much lower | 4-5 |
